# Laboratory results: patent publication US20130045483A1, “YEAST CELLS EXPRESSING AMYLOID BETA AND USES THEREFOR” (priority 2011, published 2013)
# How the values were obtained:
# ssAβ 1-42 strain = assay: Clioquinol rescue in liquid culture (Bioscreen OD600 growth); type: cell-based, yeast; conditions: for growth of the Aβ expressing strain: inducing (galactose) media, various concentrations; for growth at the optimal concentration compared with control strain: control strain expressing YFP
# Protocol: (§1) To further test the effect of clioquinol, a control strain and a strain expressing toxic levels of Aβ were grown in liquid culture with various concentrations of the compound.
# Yeast strains were grown overnight to saturation in synthetic medium with glucose as the carbon source after inoculation from a colony. These cultures were used to inoculate raffinose cultures. Raffinose cultures in log phase growth (OD600 0.7-0.9) were diluted to an OD600 of 0.03 in synthetic medium with galactose as the carbon source, and […] of the cell suspension was distributed to each well of a Bioscreen plate. […] of clioquinol (Sigma C8133, ˜95%), dissolved in DMSO at 100 times the final intended concentration, was added to each well. A Labsystems Bioscreen C was used to maintain the plate at 30 degrees C. and make OD600 measurements on each well at 10-minute intervals over a period of approximately three days. Each condition was performed in duplicate.
# GAL controlled YFP = assay: GAL1-induced expression, flow cytometry of GAL controlled YFP; type: cell-based, yeast; conditions: flow cytometry of GAL controlled YFP (data not shown)
# Protocol: as §1
# A strain carrying an integrated YFP was transformed with the putative Aβ suppressors. The resulting strains were grown in glucose media in a 96 well format, diluted into the various inducing media (galactose, glucose+1 uM estradiol, glycerol+1 uM estradiol) [5 ul culture added to 120 ul media], and incubated over night at 30° C. with mild shaking. These overnight cultures were diluted 20 fold into water and YFP levels were measured using a Guava flow cytometer. Each strain was measured 3 times and 5000 cells were counted for each well. The whole experiment was repeated 3 times. Values are averages of these 3 experiments and reported in percent of the vector control strain YFP levels.
structure (smiles),measurement,setting,value
Oc1c(I)cc(Cl)c2cccnc12 [clioquinol],toxicity at higher concentrations,"ssAβ 1-42 strain; higher concentrations, ssAβ 1-42 strain and YFP control strain",toxic to both strains
same,growth of the Aβ expressing strain,ssAβ 1-42 strain,rescued growth levels in a dose dependent manner
same,growth of the Aβ expressing strain,ssAβ 1-42 strain; listed as Clioquinol,improved the growth of the Aβ expressing strain in a dose dependent manner
same,growth at the optimal concentration compared with control strain,ssAβ 1-42 strain,restored growth levels to those of a control strain expressing YFP
same,growth at the optimal concentration compared with control strain,ssAβ 1-42 strain; listed as Clioquinol,nearly as robust as that of the control strain
same,effect on GAL1-induced expression,GAL controlled YFP,did not diminish GAL1-induced expression
